IC50 data for ten molecules are collected here from patent publication US11492335B2, “Aryl or heteroaryl triazolone derivatives or salts thereof, or pharmaceutical compositions comprising the same” (YUHAN CORPORATION, priority 2018, dated 2022).

Structures can show the parent of a compound that is named as a salt. Where two headings read alike, the source gives them in different places.

By IC50 is commonly meant the point on the concentration scale where inhibition reaches its midpoint.

What all share (type): biochemical
The target in assay [1] is T1, recombinant human DAO (diamine oxidase) (Homo sapiens, UniProt P19801).
T1 construct: purchased R&D systems
T1 sequence (P19801 20-751): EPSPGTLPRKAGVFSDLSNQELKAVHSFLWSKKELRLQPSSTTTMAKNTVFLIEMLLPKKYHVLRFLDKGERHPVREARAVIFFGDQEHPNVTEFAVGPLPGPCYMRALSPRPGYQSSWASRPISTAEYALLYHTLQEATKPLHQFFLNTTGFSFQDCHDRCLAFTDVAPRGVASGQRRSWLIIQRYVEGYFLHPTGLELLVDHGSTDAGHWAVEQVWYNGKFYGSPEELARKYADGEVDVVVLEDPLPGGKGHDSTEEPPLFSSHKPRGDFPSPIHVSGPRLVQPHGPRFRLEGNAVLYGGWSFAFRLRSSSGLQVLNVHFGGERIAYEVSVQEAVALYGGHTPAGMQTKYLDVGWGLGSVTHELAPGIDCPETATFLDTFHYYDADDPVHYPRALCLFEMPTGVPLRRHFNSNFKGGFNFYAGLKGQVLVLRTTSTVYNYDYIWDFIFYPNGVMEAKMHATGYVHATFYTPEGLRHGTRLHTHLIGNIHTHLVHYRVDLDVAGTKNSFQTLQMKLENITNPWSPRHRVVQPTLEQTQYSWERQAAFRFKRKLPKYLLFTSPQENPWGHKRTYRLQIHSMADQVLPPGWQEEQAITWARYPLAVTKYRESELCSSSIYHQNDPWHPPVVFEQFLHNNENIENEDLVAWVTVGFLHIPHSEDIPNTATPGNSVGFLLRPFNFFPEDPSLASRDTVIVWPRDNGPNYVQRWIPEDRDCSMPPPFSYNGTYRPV
Description: Activity on recombinant human DAO, Amplex Red method, 1 mM putrescine substrate. The following applies: recombinant human DAO, read-out: Inhibitory Activity (IC50, nM) DAO. In short, it runs like this: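 Inhibition of recombinant human DAO (diamine oxidase, R&D systems) was assessed with the Amplex Red Hydrogen Peroxide Assay Kit. Hydrogen peroxide produced from 1 mM putrescine was detected through an HRP-coupled reaction that converts Amplex Red into fluorescent resorufin, read at 544 nm excitation and 590 nm emission. IC50 values came from four-parameter logistic fits in GraphPad Prism.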

For a further assay, the target named is T2, recombinant human VAP-1 (Homo sapiens, UniProt Q16853).
T2 construct: purchased R&D systems
T2 sequence (Q16853 1-763): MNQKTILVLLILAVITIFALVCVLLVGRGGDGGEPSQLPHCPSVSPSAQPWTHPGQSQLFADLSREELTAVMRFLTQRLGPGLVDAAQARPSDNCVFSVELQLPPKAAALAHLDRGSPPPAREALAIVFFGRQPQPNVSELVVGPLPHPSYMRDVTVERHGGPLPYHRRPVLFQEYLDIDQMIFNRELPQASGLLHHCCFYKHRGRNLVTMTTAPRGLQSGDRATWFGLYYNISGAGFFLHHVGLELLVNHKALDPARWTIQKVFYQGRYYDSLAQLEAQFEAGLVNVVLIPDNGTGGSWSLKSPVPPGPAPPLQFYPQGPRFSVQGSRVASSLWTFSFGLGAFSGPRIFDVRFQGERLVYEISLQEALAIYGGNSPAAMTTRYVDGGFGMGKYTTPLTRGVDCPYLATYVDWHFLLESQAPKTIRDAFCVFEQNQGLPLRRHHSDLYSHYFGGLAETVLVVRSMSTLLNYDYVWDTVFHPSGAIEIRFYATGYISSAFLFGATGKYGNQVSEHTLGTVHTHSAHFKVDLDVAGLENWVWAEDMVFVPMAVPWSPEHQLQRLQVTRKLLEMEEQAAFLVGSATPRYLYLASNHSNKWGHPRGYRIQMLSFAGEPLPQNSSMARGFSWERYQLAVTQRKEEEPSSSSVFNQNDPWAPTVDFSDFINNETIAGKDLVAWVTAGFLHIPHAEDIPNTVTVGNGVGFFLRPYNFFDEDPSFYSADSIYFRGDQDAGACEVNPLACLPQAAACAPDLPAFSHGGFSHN
The experiment in a line: Activity on recombinant human VAP-1, Amplex Red HRP-coupled hydrogen peroxide assay, benzylamine substrate. Conditions: recombinant human VAP-1, benzylamine substrate, read-out: Inhibitory Activity (IC50, nM) human VAP-1. In short, it runs like this: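 H2O2 generation from 1 mM benzylamine was coupled via 1 U/mL HRP to 200 uM Amplex Red; inhibitors, serially diluted 1:3 over 8 points with under 1% final DMSO, had been preincubated 30 min at 37 °C. IC50 from percentage drop in rate.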

Assay [2] concerns the target T3, recombinant human MAO-B (monoamine oxidase-B) (Homo sapiens, UniProt P27338).
T3 construct: purchased Sigma-Aldrich
T3 sequence (P27338 1-520): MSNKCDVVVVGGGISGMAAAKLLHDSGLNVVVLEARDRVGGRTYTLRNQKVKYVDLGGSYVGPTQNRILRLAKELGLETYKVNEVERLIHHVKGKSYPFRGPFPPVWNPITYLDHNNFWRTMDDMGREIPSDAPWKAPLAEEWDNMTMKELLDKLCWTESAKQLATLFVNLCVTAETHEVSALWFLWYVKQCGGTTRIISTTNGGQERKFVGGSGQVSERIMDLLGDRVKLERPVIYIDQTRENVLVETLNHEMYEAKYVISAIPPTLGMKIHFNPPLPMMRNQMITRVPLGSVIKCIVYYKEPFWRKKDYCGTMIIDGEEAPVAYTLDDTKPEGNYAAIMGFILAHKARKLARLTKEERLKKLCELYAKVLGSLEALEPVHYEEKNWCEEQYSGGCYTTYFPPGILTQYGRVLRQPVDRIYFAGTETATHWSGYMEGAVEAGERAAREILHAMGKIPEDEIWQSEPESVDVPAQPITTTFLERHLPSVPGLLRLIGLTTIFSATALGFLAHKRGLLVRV
The experiment in a line: Activity on recombinant human MAO-B, Amplex Red method, 1 mM benzylamine substrate. The following applies: read-out: Inhibitory Activity (IC50, nM) MAO-B. In short, it runs like this:
(§1)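 First, serially diluted compounds were incubated with recombinant enzyme in 50 mM sodium phosphate, pH 7.4, for 30 min at 37° C. Next, Amplex Red (200 uM), HRP (1 U/mL) and tyramine (0.5 mM, MAO-A) or benzylamine (1 mM, MAO-B) were added. Then fluorescence was monitored over 1-2 h and IC50 fitted.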

The target of assay [3] is T4, recombinant human MAO-A (monoamine oxidase-A) (Homo sapiens, UniProt P21397).
T4 construct: purchased Sigma-Aldrich
T4 sequence (P21397 1-527): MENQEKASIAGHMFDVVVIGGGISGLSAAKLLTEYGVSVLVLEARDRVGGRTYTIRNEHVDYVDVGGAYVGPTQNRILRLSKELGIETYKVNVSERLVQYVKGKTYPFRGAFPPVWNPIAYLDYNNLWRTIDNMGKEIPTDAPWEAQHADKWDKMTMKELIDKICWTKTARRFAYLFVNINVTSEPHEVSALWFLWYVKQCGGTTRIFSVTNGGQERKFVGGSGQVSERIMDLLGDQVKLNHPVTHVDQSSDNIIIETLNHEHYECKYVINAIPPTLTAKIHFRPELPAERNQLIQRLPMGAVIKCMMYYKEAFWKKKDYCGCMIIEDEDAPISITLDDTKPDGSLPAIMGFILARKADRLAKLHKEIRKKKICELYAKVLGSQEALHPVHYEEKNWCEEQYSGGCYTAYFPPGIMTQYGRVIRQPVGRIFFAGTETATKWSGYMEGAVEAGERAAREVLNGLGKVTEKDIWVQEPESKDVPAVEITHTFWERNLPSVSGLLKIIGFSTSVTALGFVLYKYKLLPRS
Description: Activity on recombinant human MAO-A, Amplex Red method, 0.5 mM tyramine substrate. Conditions: read-out: Inhibitory Activity (IC50, nM) MAO-A. The procedure, abridged: as §1

Setting [4] is: 1 mM putrescine, * = between 10 and 100 nM, ** = between 300 and 1000 nM.

On to `Cc1cc(-c2ccc(C(=O)N3CCOCC3)cc2)cnc1-n1cnn(C/C(=C/F)CN)c1=O` [Example 146, 2-[(2E)-2-(aminomethyl)-3-fluoroprop-2-en-1-yl]-4-{3-methyl-5-[4-(morpholin-4-ylcarbonyl)phenyl]pyridin-2-yl}-2,4-dihydro-3H-1,2,4-triazol-3-one hydrochloride], for which the IC50 in assay [1] (setting [4]) was 17000 nM; at recombinant human VAP-1 (30 min preincubation at 37° C.), 0.7 nM; in assay [2] (1 mM benzylamine) it was greater than 10000 nM; in assay [3] (0.5 mM tyramine) it was greater than 100000 nM.
`CC(=O)Nc1cc(-c2cnc(-n3cnn(C/C(=C/F)CN)c3=O)c(C)c2)ccn1` [Example 147, (E)-N-(6-(1-(2-(aminomethyl)-3-fluoroallyl)-5-oxo-1,5-dihydro-4H-1,2,4-triazol-4-yl)-5-methyl-[3,4′-bipyridin]-2′-yl)acetamide hydrochloride]: the IC50 in assay [1] (setting [4]) is 450 nM; at recombinant human VAP-1 (30 min preincubation at 37° C.) it was 0.55 nM; in assay [2] (1 mM benzylamine), greater than 10000 nM; in assay [3] (0.5 mM tyramine), greater than 10000 nM.
As to `Cc1cc(-c2ccc(C(F)(F)F)nc2)cnc1-n1cnn(C/C(=C/F)CN)c1=O` [Example 148, 2-[(2E)-2-(aminomethyl)-3-fluoroprop-2-en-1-yl]-4-[5-methyl-6′-(trifluoromethyl)-3,3′-bipyridin-6-yl]-2,4-dihydro-3H-1,2,4-triazol-3-one hydrochloride], the IC50 was 35 nM in assay [1] (setting [4]), 0.4 nM on recombinant human VAP-1 (30 min preincubation at 37° C.), greater than 10000 nM in assay [2] (1 mM benzylamine) and 160000 nM in assay [3] (0.5 mM tyramine).
With `Cc1cc(-c2ccc(N3CCOCC3)nc2)cnc1-n1cnn(C/C(=C/F)CN)c1=O` [Example 149, 2-[(2E)-2-(aminomethyl)-3-fluoroprop-2-en-1-yl]-4-[5-methyl-6′-(morpholin-4-yl)-3,3′-bipyridin-6-yl]-2,4-dihydro-3H-1,2,4-triazol-3-one hydrochloride], the IC50 in assay [1] (setting [4]) is 490 nM; at recombinant human VAP-1 (30 min preincubation at 37° C.), 0.5 nM; in assay [2] (1 mM benzylamine), greater than 10000 nM; in assay [3] (0.5 mM tyramine), greater than 100000 nM.
As for `Cc1cc(-c2ccc3c(c2)OCO3)cnc1-n1cnn(C/C(=C/F)CN)c1=O` [Example 150, 2-[(2E)-2-(aminomethyl)-3-fluoroprop-2-en-1-yl]-4-[5-(2H-1,3-benzodioxol-5-yl)-3-methylpyridin-2-yl]-2,4-dihydro-3H-1,2,4-triazol-3-one hydrochloride], the half-inhibitory concentration (IC50) in assay [1] (setting [4]) came to 480 nM; on recombinant human VAP-1 (30 min preincubation at 37° C.), 0.35 nM; in assay [2] (1 mM benzylamine) it was 170 nM; in assay [3] (0.5 mM tyramine), 4800 nM.
Turning to `Cc1cc(-c2ccc3c(c2)NC(=O)C3)cnc1-n1cnn(C/C(=C/F)CN)c1=O` [Example 151, 6-(6-{1-[(2E)-2-(aminomethyl)-3-fluoroprop-2-en-1-yl]-5-oxo-1,5-dihydro-4H-1,2,4-triazol-4-yl}-5-methylpyridin-3-yl)-1,3-dihydro-2H-indol-2-one], the IC50 in assay [1] (1 mM putrescine substrate) was 98 nM; at recombinant human VAP-1, 0.52 nM; in assay [2] (1 mM benzylamine substrate), greater than 10000 nM; in assay [3] (0.5 mM tyramine substrate), greater than 10000 nM.
With `Cc1cc(-c2ccc3nonc3c2)cnc1-n1cnn(C/C(=C/F)CN)c1=O` [Example 152, 2-[(2E)-2-(aminomethyl)-3-fluoroprop-2-en-1-yl]-4-[5-(2,1,3-benzooxadiazol-5-yl)-3-methylpyridin-2-yl]-2,4-dihydro-3H-1,2,4-triazol-3-one hydrochloride], the IC50 was 1300 nM in assay [1] (1 mM putrescine substrate), 0.5 nM on recombinant human VAP-1, 314 nM in assay [2] (1 mM benzylamine substrate) and 7420 nM in assay [3] (0.5 mM tyramine substrate).
Taken in the same sequence, the figures for `Cc1cc(-c2ccc3cn[nH]c3c2)cnc1-n1cnn(C/C(=C/F)CN)c1=O` [Example 153, 2-[(2E)-2-(aminomethyl)-3-fluoroprop-2-en-1-yl]-4-[5-(1H-indazol-6-yl)-3-methylpyridin-2-yl]-2,4-dihydro-3H-1,2,4-triazol-3-one] were 640 nM, 0.39 nM, 703 nM and 96000 nM.
Turning to `Cc1cc(-c2cc(C)c3c(c2)CCC(=O)N3)cnc1-n1cnn(C/C(=C/F)CN)c1=O` [Example 154, 6-(6-{1-[(2E)-2-(aminomethyl)-3-fluoroprop-2-en-1-yl]-5-oxo-1,5-dihydro-4H-1,2,4-triazol-4-yl}-5-methylpyridin-3-yl)-8-methyl-3,4-dihydroquinolin-2(1H)-one hydrochloride], the IC50 in assay [1] (1 mM putrescine substrate) was 190 nM; on recombinant human VAP-1 it was 0.3 nM; in assay [2] (1 mM benzylamine substrate), 3000 nM; in assay [3] (0.5 mM tyramine substrate) it was greater than 100000 nM.
Consider `Cc1cc(-c2ccc3c(c2)NC(=O)CO3)cnc1-n1cnn(C/C(=C/F)CN)c1=O` [Example 155, 6-(6-{1-[(2E)-2-(aminomethyl)-3-fluoroprop-2-en-1-yl]-5-oxo-1,5-dihydro-4H-1,2,4-triazol-4-yl}-5-methylpyridin-3-yl)-2H-1,4-benzoxazin-3 (4H)-one hydrochloride], for which the IC50 in assay [1] (1 mM putrescine substrate) was found to be 87 nM; on recombinant human VAP-1, 0.3 nM; in assay [2] (1 mM benzylamine substrate), 4400 nM; in assay [3] (0.5 mM tyramine substrate) it was 16000 nM.
